Data on eight molecules can be found in patent US9422338B2 (EpoDose LLC, priority 2011, dated 2016).

The target in the experiment is T1, EPOR (erythropoietin receptor), human recombinant, NSO cells (Homo sapiens, UniProt P19235).
T1 construct: host or cells: NSO cells
T1 sequence (P19235 25-250 limits assumed): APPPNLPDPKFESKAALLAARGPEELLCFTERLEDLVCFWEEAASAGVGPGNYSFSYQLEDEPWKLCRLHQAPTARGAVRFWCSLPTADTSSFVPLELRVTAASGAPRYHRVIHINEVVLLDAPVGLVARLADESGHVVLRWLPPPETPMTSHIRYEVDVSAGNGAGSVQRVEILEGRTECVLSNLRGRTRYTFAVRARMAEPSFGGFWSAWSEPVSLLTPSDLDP
As to the kind of experiment: EPOR radioligand binding assay ([125I] Erythropoietin competition). Here is the method: IC50 values were determined by a non-linear, least squares regression analysis using MATHIQ™ (computer software for integrating mathematical functions into new or existing software). […] Where presented, the Hill coefficient (nH), defining the slope of the competitive binding curve, was calculated using MATHIQ™.

Setting [1] is: Example 1, mimetics varied in N-end, loop and mid sequences.
Setting [2] is: Example 2, mimetics varied in loop, mid and C-end.

Consider `CSCC[C@@H]1NC(=O)[C@H](CCCNC(=N)N)NC(=O)C(NC(=O)[C@H](CC(C)C)NC(=O)[C@H](Cc2ccc(O)cc2)NC(=O)[C@H](CC(N)=O)NC(C)=O)CCOCC(C(=O)N[C@@H](CCCCNC(=N)N)C(=O)N2CCC[C@H]2C(=O)NCCCCC(=O)NCCCCC(NC(=O)[C@@H]2CCCN2C(=O)[C@H](CCCCNC(=N)N)NC(=O)C2COCCC(NC(=O)[C@H](CC(C)C)NC(=O)[C@H](Cc3ccc(O)cc3)NC(=O)[C@H](CC(N)=O)NC(C)=O)C(=O)N[C@@H](CCCNC(=N)N)C(=O)N[C@@H](CCSC)C(=O)NCC(=O)N[C@@H](Cc3c[nH]c4ccccc34)C(=O)N[C@@H](C(C)C)C(=O)N2)C(N)=O)NC(=O)[C@H](C(C)C)NC(=O)[C@H](Cc2c[nH]c3ccccc23)NC(=O)CNC1=O` (some centres unmarked) [AC-0005-021], for which the Ki (commonly the dissociation constant of the complex between target and ligand, obtained from inhibition or displacement) under setting [1] came to 12 nM. For the same molecule, where the note is “Example 4, fourth table”, the IC50 – broadly, the concentration at which inhibition is half-maximal – came to 25 nM.

Turning to `CSCC[C@@H]1NC(=O)[C@H](Cc2c[nH]cn2)NC(=O)C(NC(=O)[C@H](CC(C)C)NC(=O)[C@H](Cc2ccc(O)cc2)NC(=O)[C@H](CC(N)=O)NC(C)=O)CCOCC(C(=O)N[C@@H](CCCCNC(=N)N)C(=O)N2CCC[C@H]2C(=O)NCCCCC(=O)NCCCCC(NC(=O)[C@@H]2CCCN2C(=O)[C@H](CCCCNC(=N)N)NC(=O)C2COCCC(NC(=O)[C@H](CC(C)C)NC(=O)[C@H](Cc3ccc(O)cc3)NC(=O)[C@H](CC(N)=O)NC(C)=O)C(=O)N[C@@H](Cc3c[nH]cn3)C(=O)N[C@@H](CCSC)C(=O)N3CCC[C@H]3C(=O)N[C@@H](Cc3ccc4ccccc4c3)C(=O)N[C@@H](C(C)C)C(=O)N2)C(N)=O)NC(=O)[C@H](C(C)C)NC(=O)[C@H](Cc2ccc3ccccc3c2)NC(=O)[C@@H]2CCCN2C1=O` (some centres unmarked) [AC-0005-056], the Ki runs as follows: under setting [1], 11.2 nM; (Example 3, Cheng-Prusoff) 11.1 nM. Also, the IC50 is, setting by setting: (Example 3) 23.5 nM; (Example 4, fifth table) 24 nM.

For `CSCC[C@@H]1NC(=O)[C@H](CCCNC(=N)N)NC(=O)C(NC(=O)[C@H](CC(C)C)NC(=O)[C@H](Cc2ccc(O)cc2)NC(=O)[C@H](CC(N)=O)NC(C)=O)CCOCC(C(=O)N[C@@H](CCCCNC(=N)N)C(=O)N2CCC[C@H]2C(=O)NCCCOCCC(OCCCNC(=O)[C@@H]2CCCN2C(=O)[C@H](CCCCNC(=N)N)NC(=O)C2COCCC(NC(=O)[C@H](CC(C)C)NC(=O)[C@H](Cc3ccc(O)cc3)NC(=O)[C@H](CC(N)=O)NC(C)=O)C(=O)N[C@@H](CCCNC(=N)N)C(=O)N[C@@H](CCSC)C(=O)N3CCC[C@H]3C(=O)N[C@@H](Cc3ccc4ccccc4c3)C(=O)N[C@@H](C(C)C)C(=O)N2)C(N)=O)NC(=O)[C@H](C(C)C)NC(=O)[C@H](Cc2ccc3ccccc3c2)NC(=O)[C@@H]2CCCN2C1=O` (some centres unmarked) [AC-0005-064], under setting [2], the Ki came to 0.6 nM. Also, the IC50 (Example 4, sixth table) was determined as 1.3 nM.

On to `CSCC[C@H]1COC2CCCC2C(=O)N[C@@H](Cc2c[nH]c3ccccc23)C(=O)N[C@@H](C(C)C)C(=O)NC(C(=O)N[C@@H](CCCCNC(=N)N)C(=O)N2CCC[C@H]2C(=O)NCCCCC(=O)NCCCCC(NC(=O)[C@@H]2CCCN2C(=O)[C@H](CCCCNC(=N)N)NC(=O)C2COCCC(NC(=O)[C@H](CC(C)C)NC(=O)[C@H](Cc3ccc(O)cc3)NC(=O)[C@H](CC(N)=O)NC(C)=O)C(=O)N[C@@H](CCCNC(=N)N)C(=O)N[C@@H](CCSC)COC3CCCC3C(=O)N[C@@H](Cc3c[nH]c4ccccc34)C(=O)N[C@@H](C(C)C)C(=O)N2)C(N)=O)COCCC(NC(=O)[C@H](CC(C)C)NC(=O)[C@H](Cc2ccc(O)cc2)NC(=O)[C@H](CC(N)=O)NC(C)=O)C(=O)N[C@@H](CCCNC(=N)N)C(=O)N1` (some centres unmarked) [AC-0005-057], for which the “NH (Hill coefficient)” value (Example 3, slope of competitive binding curve) turned out to be 1.84. For the same molecule, where the note is “Example 4, fifth table, Ki relative to that of AC-0005-002”, the “Ki (AC-0005-002)/Ki” value was 379. The “Ki/Ki(EPO)” value (Example 4, fifth table, Ki relative to that of EPO) was determined as 128.

On to `CC[C@H](C)[C@@H]1NC(=O)[C@@H]2CCCN2C(=O)CNC(=O)[C@H](CCSC)NC(=O)[C@H](Cc2c[nH]cn2)NC(=O)C(NC(=O)[C@H](C)NC(=O)[C@H](Cc2ccc(O)cc2)NC(=O)[C@H](CC(C)C)NC(C)=O)CCOCC(C(=O)N[C@@H](CCC(N)=O)C(=O)N2CCC[C@H]2C(=O)NCCCCC(=O)NCCCCC(NC(=O)[C@@H]2CCCN2C(=O)[C@H](CCC(N)=O)NC(=O)C2COCCC(NC(=O)[C@H](C)NC(=O)[C@H](Cc3ccc(O)cc3)NC(=O)[C@H](CC(C)C)NC(C)=O)C(=O)N[C@@H](Cc3c[nH]cn3)C(=O)N[C@@H](CCSC)C(=O)NCC(=O)N3CCC[C@H]3C(=O)N[C@@H]([C@@H](C)CC)C(=O)N[C@@H]([C@@H](C)O)C(=O)N[C@@H](Cc3cccc4ccccc34)C(=O)N[C@@H](C(C)C)C(=O)N2)C(N)=O)NC(=O)[C@H](C(C)C)NC(=O)[C@H](Cc2cccc3ccccc23)NC(=O)[C@H]([C@@H](C)O)NC1=O` (some centres unmarked) [AC-0005-007], for which, under “Example 4, first table”, the IC50 turned out to be 4950 nM and the Ki worked out at 2350 nM.

Take `CSCC[C@@H]1NC(=O)[C@H](CCCNC(=N)N)NC(=O)C(NC(=O)[C@H](CC(C)C)NC(=O)[C@H](Cc2ccc(O)cc2)NC(=O)[C@H](CC(N)=O)NC(C)=O)CCOCC(C(=O)N[C@@H](CCCCN)C(=O)N2CCC[C@H]2C(=O)NC(CCCCNC(=O)CCCC(NC(=O)[C@@H]2CCCN2C(=O)[C@H](CCCCN)NC(=O)C2COCCC(NC(=O)[C@H](CC(C)C)NC(=O)[C@H](Cc3ccc(O)cc3)NC(=O)[C@H](CC(N)=O)NC(C)=O)C(=O)N[C@@H](CCCNC(=N)N)C(=O)N[C@@H](CCSC)C(=O)N3CCC[C@H]3C(=O)N[C@@H](Cc3ccc4ccccc4c3)C(=O)N[C@@H](C(C)C)C(=O)N2)C(=O)NCCC(=O)N[C@@H](CCCNC(=N)N)C(N)=O)C(=O)NCCC(=O)N[C@@H](CCCNC(=N)N)C(N)=O)NC(=O)[C@H](C(C)C)NC(=O)[C@H](Cc2ccc3ccccc3c2)NC(=O)[C@@H]2CCCN2C1=O` (some centres unmarked) [AC-0005-062]: under setting [2], the Ki amounted to 1.2 nM. For the same molecule, where the note is “Example 4, sixth table”, the IC50 worked out at 2.4 nM.

For the molecule `CC[C@H](C)[C@@H]1NC(=O)[C@@H]2CCCN2C(=O)CNC(=O)[C@H](CCSC)NC(=O)[C@H](CCCNC(=N)N)NC(=O)C(NC(=O)[C@H](C)NC(=O)[C@H](Cc2ccc(O)cc2)NC(=O)[C@H](CC(C)C)NC(C)=O)CCOCC(C(=O)NCCCCC(=O)NCCCCC(NC(=O)C2COCCC(NC(=O)[C@H](C)NC(=O)[C@H](Cc3ccc(O)cc3)NC(=O)[C@H](CC(C)C)NC(C)=O)C(=O)N[C@@H](CCCNC(=N)N)C(=O)N[C@@H](CCSC)C(=O)NCC(=O)N3CCC[C@H]3C(=O)N[C@@H]([C@@H](C)CC)C(=O)N[C@@H]([C@@H](C)O)C(=O)N[C@@H](Cc3cccc4ccccc34)C(=O)N[C@@H](C(C)C)C(=O)N2)C(N)=O)NC(=O)[C@H](C(C)C)NC(=O)[C@H](Cc2cccc3ccccc23)NC(=O)[C@H]([C@@H](C)O)NC1=O` (some centres unmarked) [AC-0005-008], the IC50 (Example 4, first table) is more than 10000 nM.

In the case of `CSCC[C@@H]1NC(=O)[C@H](Cc2c[nH]cn2)NC(=O)C(NC(=O)[C@H](CC(C)C)NC(=O)[C@H](Cc2ccc(O)cc2)NC(=O)[C@H](CC(N)=O)NC(C)=O)CCOCC(C(=O)N[C@@H](CCCCNC(=N)N)C(=O)N2CCC[C@H]2C(=O)NCCCCC(=O)NCCCCC(NC(=O)[C@@H]2CCCN2C(=O)[C@H](CCCCNC(=N)N)NC(=O)C2COCCC(NC(=O)[C@H](CC(C)C)NC(=O)[C@H](Cc3ccc(O)cc3)NC(=O)[C@H](CC(N)=O)NC(C)=O)C(=O)N[C@@H](Cc3c[nH]cn3)C(=O)N[C@@H](CCSC)C(=O)N3CCC[C@H]3C(=O)N[C@@H](Cc3c[nH]c4ccccc34)C(=O)N[C@@H](C(C)C)C(=O)N2)C(N)=O)NC(=O)[C@H](C(C)C)NC(=O)[C@H](Cc2c[nH]c3ccccc23)NC(=O)[C@@H]2CCCN2C1=O` (some centres unmarked) [AC-0005-054], the inhibition constant (Ki) runs as follows: under setting [1], 15.5 nM; (Example 3, Cheng-Prusoff) 30.9 nM. Besides, the IC50 is, setting by setting: (Example 3) 65.1 nM; (Example 4, fifth table) 33 nM.
